Assay results reported in patent US10442807B2, “Aryl substituted bicyclic compounds as herbicides” (FMC Corporation, priority 2015, dated 2019).

Assays:
Format in all cases: in vivo
[1] = tested on: barnyardgrass (Echinochloa crus-galli); assay: Test A preemergence, directed soil spray, visual injury rating; conditions: approx. 10 d, 0 = no effect, 100 = complete control
Excerpt: (§1) Seeds of plant species selected from barnyardgrass (Echinochloa crus-galli), kochia (Kochia scoparia), ragweed (common ragweed, Ambrosia elation), ryegrass, Italian (Italian ryegrass, Lolium multiflorum), foxtail, giant (giant foxtail, Setaria faberii), and pigweed (Amaranthus retroflexus), were planted into a blend of loam soil and sand and treated preemergence with a directed soil spray using test chemicals formulated in a non-phytotoxic solvent mixture which included a surfactant. At the same time, plants selected from these weed species and also blackgrass (Alopecurus myosuroides), galium (catchweed bedstraw, Galium aparine), wheat (Triticum aestivum), and corn (Zea mays) were planted in pots containing the same blend of loam soil and sand and treated with postemergence applications of test chemicals formulated in the same manner. Plants ranged in height from 2 to 10 cm and were in the one- to two-leaf stage for the postemergence treatment. Treated plants and untreated controls were maintained in a greenhouse for approximately 10 d, after which time all treated plants were compared to untreated controls and visually evaluated for injury. Plant response ratings, summarized in Table A, are based on a 0 to 100 scale where 0 is no effect and 100 is complete control. A dash (-) response means no test result.

[2] = tested on: foxtail, giant (giant foxtail, Setaria faberii); assay: as above; conditions: approx. 10 d, 0 = no effect, 100 = complete control
Excerpt: as §1

kochia (Kochia scoparia) [3] = assay: as above; conditions: approx. 10 d, 0 = no effect, 100 = complete control
Excerpt: as §1

[4] = tested on: pigweed (Amaranthus retroflexus); assay: as above; conditions: approx. 10 d, 0 = no effect, 100 = complete control
Excerpt: as §1

[5] = tested on: ragweed (common ragweed, Ambrosia elation); assay: as above; conditions: approx. 10 d, 0 = no effect, 100 = complete control
Excerpt: as §1

[6] = tested on: ryegrass, Italian (Italian ryegrass, Lolium multiflorum); assay: as above; conditions: approx. 10 d, 0 = no effect, 100 = complete control
Excerpt: as §1

[7] = tested on: barnyardgrass (Echinochloa crus-galli); assay: Test A postemergence application, visual injury rating; conditions: approx. 10 d, 0 = no effect, 100 = complete control
Excerpt: as §1

[8] = tested on: blackgrass (Alopecurus myosuroides); assay: as above; conditions: approx. 10 d, 0 = no effect, 100 = complete control
Excerpt: as §1

corn (Zea mays) = assay: as above; conditions: approx. 10 d, 0 = no effect, 100 = complete control
Excerpt: as §1

[9] = tested on: foxtail, giant (giant foxtail, Setaria faberii); assay: as above; conditions: approx. 10 d, 0 = no effect, 100 = complete control
Excerpt: as §1

[10] = tested on: galium (catchweed bedstraw, Galium aparine); assay: as above; conditions: approx. 10 d, 0 = no effect, 100 = complete control
Excerpt: as §1

kochia (Kochia scoparia) [11] = assay: as above; conditions: approx. 10 d, 0 = no effect, 100 = complete control
Excerpt: as §1

[12] = tested on: pigweed (Amaranthus retroflexus); assay: as above; conditions: approx. 10 d, 0 = no effect, 100 = complete control
Excerpt: as §1

[13] = tested on: ragweed (common ragweed, Ambrosia elation); assay: as above; conditions: approx. 10 d, 0 = no effect, 100 = complete control
Excerpt: as §1

[14] = tested on: ryegrass, Italian (Italian ryegrass, Lolium multiflorum); assay: as above; conditions: approx. 10 d, 0 = no effect, 100 = complete control
Excerpt: as §1

[15] = tested on: wheat (Triticum aestivum); assay: as above; conditions: approx. 10 d, 0 = no effect, 100 = complete control
Excerpt: as §1

[16] = tested on: barnyardgrass (Echinochloa crus-galli); assay: Test B flooded paddy test, visual plant response rating; conditions: 250 g ai/ha; applied to paddy water at 2-leaf stage; rated after 13 to 15 days; scale 0 to 100, 0 is no effect, 100 is complete control
Excerpt: (§2) At time of treatment, test pots were flooded to 3 cm above the soil surface, treated by application of test compounds directly to the paddy water, and then maintained at that water depth for the duration of the test. Treated plants and controls were maintained in a greenhouse for 13 to 15 days, after which time all species were compared to controls and visually evaluated. Plant response ratings, summarized in Table B, are based on a scale of 0 to 100 where 0 is no effect and 100 is complete control. A dash (-) response means no test result.

[17] = tested on: ducksalad (Heteranthera limosa); assay: as above; conditions: 250 g ai/ha; applied to paddy water at 2-leaf stage; rated after 13 to 15 days; scale 0 to 100, 0 is no effect, 100 is complete control
Excerpt: as §2

rice (Oryza sativa) = assay: as above; conditions: 250 g ai/ha; applied to paddy water at 2-leaf stage; rated after 13 to 15 days; scale 0 to 100, 0 is no effect, 100 is complete control
Excerpt: as §2

[18] = tested on: sedge, umbrella (small-flower umbrella sedge, Cyperus difformis); assay: as above; conditions: 250 g ai/ha; applied to paddy water at 2-leaf stage; rated after 13 to 15 days; scale 0 to 100, 0 is no effect, 100 is complete control
Excerpt: as §2

| SMILES | Barnyardgrass plant response rating (0 to 100 scale) ([1]; 125 g ai/ha) | Barnyardgrass plant response rating (0 to 100 scale) ([1]; 500 g ai/ha) | Foxtail, Giant plant response rating (0 to 100 scale) ([2]; 125 g ai/ha) | Foxtail, Giant plant response rating (0 to 100 scale) ([2]; 500 g ai/ha) | Kochia plant response rating (0 to 100 scale) (kochia (Kochia scoparia) [3]; 125 g ai/ha) | Pigweed plant response rating (0 to 100 scale) ([4]; 125 g ai/ha) | Pigweed plant response rating (0 to 100 scale) ([4]; 500 g ai/ha) | Ragweed plant response rating (0 to 100 scale) ([5]; 125 g ai/ha) | Ragweed plant response rating (0 to 100 scale) ([5]; 500 g ai/ha) | Ryegrass, Italian plant response rating (0 to 100 scale) ([6]; 125 g ai/ha) | Ryegrass, Italian plant response rating (0 to 100 scale) ([6]; 500 g ai/ha) | Barnyardgrass plant response rating (0 to 100 scale) ([7]; 125 g ai/ha) | Barnyardgrass plant response rating (0 to 100 scale) ([7]; 500 g ai/ha) | Blackgrass plant response rating (0 to 100 scale) ([8]; 125 g ai/ha) | Blackgrass plant response rating (0 to 100 scale) ([8]; 500 g ai/ha) | Corn plant response rating (0 to 100 scale) (corn (Zea mays); 125 g ai/ha) | Corn plant response rating (0 to 100 scale) (corn (Zea mays); 500 g ai/ha) | Foxtail, Giant plant response rating (0 to 100 scale) ([9]; 125 g ai/ha) | Foxtail, Giant plant response rating (0 to 100 scale) ([9]; 500 g ai/ha) | Galium plant response rating (0 to 100 scale) ([10]; 125 g ai/ha) | further results |
| --- | --- | --- | --- | --- | --- | --- | --- | --- | --- | --- | --- | --- | --- | --- | --- | --- | --- | --- | --- | --- | --- |
| O=C(Nc1cccc(F)c1F)C1c2nncn2CC1c1ccc(Cl)cc1 (centres unmarked) [Compound 7] | 30 | 70 | 40 | 80 | 0 | 0 | 20 | 0 | 50 | 0 | 0 | 20 | 70 | 0 | 0 | 20 | 30 | 20 | 70 | 40 | Kochia plant response rating (0 to 100 scale) (kochia (Kochia scoparia) [3]; 500 g ai/ha): 40; Galium plant response rating (0 to 100 scale) ([10]; 500 g ai/ha): 50; Kochia plant response rating (0 to 100 scale) (kochia (Kochia scoparia) [11]; 125 g ai/ha): 0; Kochia plant response rating (0 to 100 scale) (kochia (Kochia scoparia) [11]; 500 g ai/ha): 40; Pigweed plant response rating (0 to 100 scale) ([12]; 125 g ai/ha): 0; Pigweed plant response rating (0 to 100 scale) ([12]; 500 g ai/ha): 50; Ragweed plant response rating (0 to 100 scale) ([13]; 125 g ai/ha): 0; Ragweed plant response rating (0 to 100 scale) ([13]; 500 g ai/ha): 60; Ryegrass, Italian plant response rating (0 to 100 scale) ([14]; 125 g ai/ha): 0; Ryegrass, Italian plant response rating (0 to 100 scale) ([14]; 500 g ai/ha): 20; Wheat plant response rating (0 to 100 scale) ([15]; 125 g ai/ha): 0; Wheat plant response rating (0 to 100 scale) ([15]; 500 g ai/ha): 20; Plant response rating, Flood, Barnyardgrass [16]: 0; Plant response rating, Flood, Ducksalad [17]: 50; Plant response rating, Flood, Rice (rice (Oryza sativa)): 15; Plant response rating, Flood, Sedge, Umbrella [18]: 0 |
| CCc1nnc2n1CC(c1ccc(C(F)(F)F)cc1)C2C(=O)Nc1cccc(F)c1F (centres unmarked) [Compound 8, N-(2,3-difluorophenyl)-3-ethyl-6,7-dihydro-6-[4-(trifluoromethyl)phenyl]-5H-pyrrolo[2,1-c]-1,2,4-triazole-7-carboxamide] | 30 | 70 | 30 | 90 | 0 | 20 | 50 | 0 | 0 | 0 | 0 | 20 | 50 | 0 | 0 | 0 | 0 | 20 | 60 | 30 | Galium plant response rating (0 to 100 scale) ([10]; 500 g ai/ha): 50; Kochia plant response rating (0 to 100 scale) (kochia (Kochia scoparia) [11]; 125 g ai/ha): 0; Kochia plant response rating (0 to 100 scale) (kochia (Kochia scoparia) [11]; 500 g ai/ha): 40; Pigweed plant response rating (0 to 100 scale) ([12]; 125 g ai/ha): 20; Pigweed plant response rating (0 to 100 scale) ([12]; 500 g ai/ha): 60; Ragweed plant response rating (0 to 100 scale) ([13]; 125 g ai/ha): 0; Ragweed plant response rating (0 to 100 scale) ([13]; 500 g ai/ha): 20; Ryegrass, Italian plant response rating (0 to 100 scale) ([14]; 125 g ai/ha): 0; Ryegrass, Italian plant response rating (0 to 100 scale) ([14]; 500 g ai/ha): 0; Wheat plant response rating (0 to 100 scale) ([15]; 125 g ai/ha): 0; Wheat plant response rating (0 to 100 scale) ([15]; 500 g ai/ha): 0; Plant response rating, Flood, Barnyardgrass [16]: 0; Plant response rating, Flood, Ducksalad [17]: 40; Plant response rating, Flood, Rice (rice (Oryza sativa)): 0; Plant response rating, Flood, Sedge, Umbrella [18]: 0 |
| CCc1ccc(C2Cn3c(C)nnc3C2C(=O)Nc2cccc(F)c2C)cc1 (centres unmarked) [Compound 9] | 40 | 70 | 60 | 90 | 0 | 0 | 0 | 0 | 0 | 0 | 0 | 30 | 70 | 20 | 70 | 0 | 0 | 0 | 50 | 0 | Kochia plant response rating (0 to 100 scale) (kochia (Kochia scoparia) [3]; 500 g ai/ha): 0; Galium plant response rating (0 to 100 scale) ([10]; 500 g ai/ha): 20; Kochia plant response rating (0 to 100 scale) (kochia (Kochia scoparia) [11]; 125 g ai/ha): 0; Kochia plant response rating (0 to 100 scale) (kochia (Kochia scoparia) [11]; 500 g ai/ha): 0; Pigweed plant response rating (0 to 100 scale) ([12]; 125 g ai/ha): 0; Pigweed plant response rating (0 to 100 scale) ([12]; 500 g ai/ha): 0; Ragweed plant response rating (0 to 100 scale) ([13]; 125 g ai/ha): 0; Ragweed plant response rating (0 to 100 scale) ([13]; 500 g ai/ha): 0; Ryegrass, Italian plant response rating (0 to 100 scale) ([14]; 125 g ai/ha): 0; Ryegrass, Italian plant response rating (0 to 100 scale) ([14]; 500 g ai/ha): 20; Wheat plant response rating (0 to 100 scale) ([15]; 125 g ai/ha): 0; Wheat plant response rating (0 to 100 scale) ([15]; 500 g ai/ha): 0; Plant response rating, Flood, Barnyardgrass [16]: 20; Plant response rating, Flood, Ducksalad [17]: 75; Plant response rating, Flood, Rice (rice (Oryza sativa)): 15; Plant response rating, Flood, Sedge, Umbrella [18]: 0 |
